Laboratory results reported in patent US9738634B2, “Heterocyclic amide compound and herbicide” (SYNGENTA PARTICIPATIONS AG, priority 2013, dated 2017).

Legend:
Format in all cases: in vivo
black-grass [1] = experiment: Test Example 3: weedkilling efficacy through soil treatment; H: black-grass; settings: treatment dosage 315 g/ha
Outline: (§1)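 Crop and weed responses were judged three weeks after a uniform surface spray of the water-diluted emulsion at the given g/ha rate. Seeds sat beneath about 1.5 cm of sterilized diluvial soil, and boxes stood in a greenhouse at 25 to 30° C.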

oval-leafed pondweed [2] = experiment: Test Example 1: weedkilling efficacy, preemergent weed treatment in the submerged state; C: oval-leafed pondweed; settings: treatment dosage 252 g/ha
Outline: (§2)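 Pots of alluvial soil flooded 4 cm deep, sown with barnyard grass, bulrush and oval-leafed pondweed and transplanted with 2.5-leaf rice. Emulsified compound applied to the water surface on sowing day at stated g/ha; greenhouse 25–30 °C, effects assessed 3 weeks after treatment.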

oval-leafed pondweed [3] = experiment: Test Example 2: weedkilling efficacy, growth period weed treatment in the submerged state; C: oval-leafed pondweed; settings: treatment dosage 252 g/ha
Outline: (§3)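 Barnyard grass, bulrush and oval-leafed pondweed sown in alluvial soil under 4 cm flooding, greenhouse 25 to 30° C. At 1-2 leaf stage, water-diluted emulsion applied to the water surface at stated g/ha dosages; effects scored 3 weeks later.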

wild oat [4] = experiment: Test Example 3: weedkilling efficacy through soil treatment; G: wild oat; settings: treatment dosage 315 g/ha
Outline: as §1

green foxtail [5] = experiment: Test Example 3: weedkilling efficacy through soil treatment; E: green foxtail; settings: treatment dosage 315 g/ha
Outline: as §1

crabgrass [6] = experiment: Test Example 3: weedkilling efficacy through soil treatment; D: crabgrass; settings: treatment dosage 315 g/ha
Outline: as §1

soybean [7] = experiment: Test Example 4: foliar treatment, effect on crop; d: soybean; settings: treatment dosage 315 g/ha
Outline: (§4)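 Seeds are spot-sown into sterilized diluvial soil and covered with about 1.5 cm of soil. After 14 days' greenhouse growth at 25 to 30° C, plants are sprayed on stems and leaves with diluted emulsion at the stated g/ha rate, then scored at 3 weeks.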

corn [8] = experiment: Test Example 4: foliar treatment, effect on crop; c: corn; settings: treatment dosage 315 g/ha
Outline: as §4

wild oat [9] = experiment: Test Example 4: weedkilling efficacy by foliar treatment; G: wild oat; settings: treatment dosage 315 g/ha
Outline: as §4

wheat [10] = experiment: Test Example 4: foliar treatment, effect on crop; e: wheat; settings: treatment dosage 315 g/ha
Outline: as §4

Indian mallow [11] = experiment: Test Example 3: weedkilling efficacy through soil treatment; K: Indian mallow; settings: treatment dosage 315 g/ha
Outline: as §1

bulrush [12] = experiment: Test Example 1: weedkilling efficacy, preemergent weed treatment in the submerged state; B: bulrush; settings: treatment dosage 252 g/ha
Outline: as §2

crabgrass [13] = experiment: Test Example 4: weedkilling efficacy by foliar treatment; D: crabgrass; settings: treatment dosage 315 g/ha
Outline: as §4

green foxtail [14] = experiment: Test Example 4: weedkilling efficacy by foliar treatment; E: green foxtail; settings: treatment dosage 315 g/ha
Outline: as §4

redroot pigweed [15] = experiment: Test Example 3: weedkilling efficacy through soil treatment; L: redroot pigweed; settings: treatment dosage 315 g/ha
Outline: as §1

bulrush [16] = experiment: Test Example 2: weedkilling efficacy, growth period weed treatment in the submerged state; B: bulrush; settings: treatment dosage 252 g/ha
Outline: as §3

beet [17] = experiment: Test Example 3: soil treatment, effect on crop; f: beet; settings: treatment dosage 315 g/ha
Outline: as §1

chickweed [18] = experiment: Test Example 3: weedkilling efficacy through soil treatment; N: chickweed; settings: treatment dosage 315 g/ha
Outline: as §1

fig-leafed goosefoot [19] = experiment: Test Example 3: weedkilling efficacy through soil treatment; M: fig-leafed goosefoot; settings: treatment dosage 315 g/ha
Outline: as §1

soybean [20] = experiment: Test Example 3: soil treatment, effect on crop; d: soybean; settings: treatment dosage 315 g/ha
Outline: as §1

wheat [21] = experiment: Test Example 3: soil treatment, effect on crop; e: wheat; settings: treatment dosage 315 g/ha
Outline: as §1

barnyard grass [22] = experiment: Test Example 2: weedkilling efficacy, growth period weed treatment in the submerged state; A: barnyard grass; settings: treatment dosage 252 g/ha
Outline: as §3

birds-eye speedwell [23] = experiment: Test Example 4: weedkilling efficacy by foliar treatment; p: birds-eye speedwell; settings: treatment dosage 315 g/ha
Outline: as §4

birds-eye speedwell [24] = experiment: Test Example 3: weedkilling efficacy through soil treatment; p: birds-eye speedwell; settings: treatment dosage 315 g/ha
Outline: as §1

catchweed [25] = experiment: Test Example 3: weedkilling efficacy through soil treatment; O: catchweed; settings: treatment dosage 315 g/ha
Outline: as §1

transplanted rice = experiment: Test Example 1: preemergent weed treatment in the submerged state, effect on crop; a: transplanted rice; settings: treatment dosage 252 g/ha
Outline: as §2

Italian ryegrass [26] = experiment: Test Example 4: weedkilling efficacy by foliar treatment; I: Italian ryegrass; settings: treatment dosage 315 g/ha
Outline: as §4

black-grass [27] = experiment: Test Example 4: weedkilling efficacy by foliar treatment; H: black-grass; settings: treatment dosage 315 g/ha
Outline: as §4

chickweed [28] = experiment: Test Example 4: weedkilling efficacy by foliar treatment; N: chickweed; settings: treatment dosage 315 g/ha
Outline: as §4

corn [29] = experiment: Test Example 3: soil treatment, effect on crop; c: corn; settings: treatment dosage 315 g/ha
Outline: as §1

catchweed [30] = experiment: Test Example 4: weedkilling efficacy by foliar treatment; O: catchweed; settings: treatment dosage 315 g/ha
Outline: as §4

directly sown rice [31] = experiment: Test Example 4: foliar treatment, effect on crop; b: directly sown rice; settings: treatment dosage 315 g/ha
Outline: as §4

directly sown rice [32] = experiment: Test Example 3: soil treatment, effect on crop; b: directly sown rice; settings: treatment dosage 315 g/ha
Outline: as §1

Italian ryegrass [33] = experiment: Test Example 3: weedkilling efficacy through soil treatment; I: Italian ryegrass; settings: treatment dosage 315 g/ha
Outline: as §1

barnyard grass [34] = experiment: Test Example 1: weedkilling efficacy, preemergent weed treatment in the submerged state; A: barnyard grass; settings: treatment dosage 252 g/ha
Outline: as §2

redroot pigweed [35] = experiment: Test Example 4: weedkilling efficacy by foliar treatment; L: redroot pigweed; settings: treatment dosage 315 g/ha
Outline: as §4

Indian mallow [36] = experiment: Test Example 4: weedkilling efficacy by foliar treatment; K: Indian mallow; settings: treatment dosage 315 g/ha
Outline: as §4

fig-leafed goosefoot [37] = experiment: Test Example 4: weedkilling efficacy by foliar treatment; M: fig-leafed goosefoot; settings: treatment dosage 315 g/ha
Outline: as §4

beet [38] = experiment: Test Example 4: foliar treatment, effect on crop; f: beet; settings: treatment dosage 315 g/ha
Outline: as §4

## CC1=C(c2ccccc2)C(=O)N(C(C)(C)C(=O)Nc2cncc(C(F)(F)F)c2)CO1 [B-3-03]
black-grass [1]
  H (black-grass) weedkilling efficacy grade: 5 (weed kill ratio 90% or more, (practically complete withering))
oval-leafed pondweed [2]
  C (oval-leafed pondweed) weedkilling efficacy grade: 5 (weed kill ratio 90% or more, (practically complete withering))
oval-leafed pondweed [3]
  C (oval-leafed pondweed) weedkilling efficacy grade: 5 (weed kill ratio 90% or more, (practically complete withering))
Wild oat [4]
  G (wild oat) weedkilling efficacy grade: 4 (weed kill ratio 70% or more, less than 90%)
Green foxtail [5]
  E (green foxtail) weedkilling efficacy grade: 5 (weed kill ratio 90% or more, (practically complete withering))
Crabgrass [6]
  D (crabgrass) weedkilling efficacy grade: 5 (weed kill ratio 90% or more, (practically complete withering))
Soybean [7]
  d (soybean) effect on crop grade: 3 (weed kill ratio 40% or more, less than 70%)
Corn [8]
  c (corn) effect on crop grade: 4 (weed kill ratio 70% or more, less than 90%)
Wild oat [9]
  G (wild oat) weedkilling efficacy grade: 4 (weed kill ratio 70% or more, less than 90%)
Wheat [10]
  e (wheat) effect on crop grade: 0 (weed kill ratio 5% or less (practically no effect))
Indian mallow [11]
  K (Indian mallow) weedkilling efficacy grade: 0 (weed kill ratio 5% or less (practically no effect))
Bulrush [12]
  B (bulrush) weedkilling efficacy grade: 5 (weed kill ratio 90% or more, (practically complete withering))
Crabgrass [13]
  D (crabgrass) weedkilling efficacy grade: 5 (weed kill ratio 90% or more, (practically complete withering))
Green foxtail [14]
  E (green foxtail) weedkilling efficacy grade: 5 (weed kill ratio 90% or more, (practically complete withering))
Redroot pigweed [15]
  L (redroot pigweed) weedkilling efficacy grade: 0 (weed kill ratio 5% or less (practically no effect))
Bulrush [16]
  B (bulrush) weedkilling efficacy grade: 5 (weed kill ratio 90% or more, (practically complete withering))
Beet [17]
  f (beet) effect on crop grade: 2 (weed kill ratio 20% or more, less than 40%)
Chickweed [18]
  N (chickweed) weedkilling efficacy grade: 0 (weed kill ratio 5% or less (practically no effect))
fig-leafed goosefoot [19]
  M (fig-leafed goosefoot) weedkilling efficacy grade: 1 (weed kill ratio 5% or more, less than 20%)
Soybean [20]
  d (soybean) effect on crop grade: 0 (weed kill ratio 5% or less (practically no effect))
Wheat [21]
  e (wheat) effect on crop grade: 0 (weed kill ratio 5% or less (practically no effect))
Barnyard grass [22]
  A (barnyard grass) weedkilling efficacy grade: 5 (weed kill ratio 90% or more, (practically complete withering))
birds-eye speedwell [23]
  P (birds-eye speedwell) weedkilling efficacy grade: 1 (weed kill ratio 5% or more, less than 20%)
birds-eye speedwell [24]
  P (birds-eye speedwell) weedkilling efficacy grade: 3 (weed kill ratio 40% or more, less than 70%)
Catchweed [25]
  O (catchweed) weedkilling efficacy grade: 0 (weed kill ratio 5% or less (practically no effect))
Transplanted rice
  a (transplanted rice) effect on crop grade: 0 (weed kill ratio 5% or less (practically no effect))
Italian ryegrass [26]
  I (Italian ryegrass) weedkilling efficacy grade: 5 (weed kill ratio 90% or more, (practically complete withering))
black-grass [27]
  H (black-grass) weedkilling efficacy grade: 5 (weed kill ratio 90% or more, (practically complete withering))
Chickweed [28]
  N (chickweed) weedkilling efficacy grade: 2 (weed kill ratio 20% or more, less than 40%)
Corn [29]
  c (corn) effect on crop grade: 4 (weed kill ratio 70% or more, less than 90%)
Catchweed [30]
  O (catchweed) weedkilling efficacy grade: 0 (weed kill ratio 5% or less (practically no effect))
Directly sown rice [31]
  b (directly sown rice) effect on crop grade: 5 (weed kill ratio 90% or more, (practically complete withering))
Directly sown rice [32]
  b (directly sown rice) effect on crop grade: 4 (weed kill ratio 70% or more, less than 90%)
Italian ryegrass [33]
  I (Italian ryegrass) weedkilling efficacy grade: 5 (weed kill ratio 90% or more, (practically complete withering))
Barnyard grass [34]
  A (barnyard grass) weedkilling efficacy grade: 5 (weed kill ratio 90% or more, (practically complete withering))
Redroot pigweed [35]
  L (redroot pigweed) weedkilling efficacy grade: 2 (weed kill ratio 20% or more, less than 40%)
Indian mallow [36]
  K (Indian mallow) weedkilling efficacy grade: 2 (weed kill ratio 20% or more, less than 40%)
fig-leafed goosefoot [37]
  M (fig-leafed goosefoot) weedkilling efficacy grade: 2 (weed kill ratio 20% or more, less than 40%)
Beet [38]
  f (beet) effect on crop grade: 0 (weed kill ratio 5% or less (practically no effect))
